Results on two compounds are retold here after paper PMC8372549 (Toxicology and applied pharmacology, 2021).

The structures appear in SMILES notation.

Common to all, as to type: biochemical
One assay concerns the target T1, CYP1B1 (Homo sapiens, UniProt Q16678).
T1 sequence (Q16678 1-543): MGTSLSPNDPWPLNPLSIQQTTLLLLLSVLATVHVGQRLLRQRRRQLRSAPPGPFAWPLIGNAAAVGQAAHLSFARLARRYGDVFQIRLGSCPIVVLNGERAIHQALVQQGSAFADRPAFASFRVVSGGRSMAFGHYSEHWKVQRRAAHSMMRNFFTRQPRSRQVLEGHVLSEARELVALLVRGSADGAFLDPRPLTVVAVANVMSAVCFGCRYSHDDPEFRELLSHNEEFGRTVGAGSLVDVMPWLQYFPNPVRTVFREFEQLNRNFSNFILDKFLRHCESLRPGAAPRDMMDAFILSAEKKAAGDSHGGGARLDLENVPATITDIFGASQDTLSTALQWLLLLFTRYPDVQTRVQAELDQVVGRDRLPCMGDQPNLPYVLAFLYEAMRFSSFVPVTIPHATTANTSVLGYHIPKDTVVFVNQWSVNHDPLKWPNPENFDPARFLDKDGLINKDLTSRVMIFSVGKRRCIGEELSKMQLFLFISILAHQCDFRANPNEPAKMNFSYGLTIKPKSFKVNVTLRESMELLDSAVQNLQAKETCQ
Kind of assay: fluorometric 7-ethoxyresorufin O-deethylation with recombinant CYP1B1 bactosomes.

Assay [1] has as its target T2, cytochrome P450 1A1 (Homo sapiens, UniProt P04798).
T2 sequence (P04798 1-512): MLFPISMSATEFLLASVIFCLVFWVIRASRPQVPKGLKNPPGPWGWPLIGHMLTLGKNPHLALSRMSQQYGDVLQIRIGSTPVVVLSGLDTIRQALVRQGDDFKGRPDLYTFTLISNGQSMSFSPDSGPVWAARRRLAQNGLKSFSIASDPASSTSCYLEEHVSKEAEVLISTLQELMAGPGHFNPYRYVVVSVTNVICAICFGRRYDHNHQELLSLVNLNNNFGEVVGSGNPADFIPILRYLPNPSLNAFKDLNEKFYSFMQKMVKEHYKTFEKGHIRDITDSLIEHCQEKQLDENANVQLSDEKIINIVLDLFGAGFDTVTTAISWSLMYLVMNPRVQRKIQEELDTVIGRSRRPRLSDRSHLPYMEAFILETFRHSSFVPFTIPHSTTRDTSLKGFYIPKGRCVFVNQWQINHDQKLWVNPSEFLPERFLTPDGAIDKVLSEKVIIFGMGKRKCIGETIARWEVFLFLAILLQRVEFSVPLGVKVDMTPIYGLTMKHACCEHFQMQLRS
Nature of the assay: fluorometric CEC O-deethylation with recombinant CYP1A1 bactosomes.

Assay [2] deals with T2, cytochrome P450 1A1. Kind of assay: fluorometric O-deethylation by recombinant CYP1A1 bactosomes. To be noted: cited from earlier work.

The term IC50 denotes the point on the concentration scale where inhibition reaches its midpoint. Usually Ki stands for a measure of affinity in units of concentration, obtained from inhibition or displacement. Turning to `c1ccc(CSSSCc2ccccc2)cc1` [DTS, dibenzyl trisulfide], at CYP1B1, the IC50 turned out to be 1.7 ± 0.3 µM. The Ki on cytochrome P450 1A1 [1] was 4.55 ± 0.37 µM.

The Km is the concentration of substrate that gives half-maximal velocity. As to `CCOc1ccc2cc(C#N)c(=O)oc2c1` [CEC, 3-cyano-7-ethoxycoumarin], the Km at cytochrome P450 1A1 [2] was 0.5 µM.
